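In this assay, cells in 96-well plates receive the compound at five concentrations for 48 hours. Endpoints are linearly interpolated between the surrounding concentrations. The concentration for full growth arrest is given as TGI.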
Experiments:
Experiment in all cases: DTP human tumour cell line panel, 48 h
KM12 colon = system: KM12 colon
KM20L2 colon = system: KM20L2 colon
SF-539 CNS = system: SF-539 CNS
M14 melanoma = system: M14 melanoma
RPMI-8226 leukemia = system: RPMI-8226 leukemia
HL-60(TB) leukemia = system: HL-60(TB) leukemia
HCT-15 colon = system: HCT-15 colon
MOLT-4 leukemia = system: MOLT-4 leukemia
OVCAR-3 ovarian = system: OVCAR-3 ovarian
UACC-257 melanoma = system: UACC-257 melanoma
SF-268 CNS = system: SF-268 CNS
ACHN renal = system: ACHN renal
HT29 colon = system: HT29 colon
COLO 205 colon = system: COLO 205 colon
K-562 leukemia = system: K-562 leukemia
NCI-H23 lung = system: NCI-H23 lung
NCI-H460 lung = system: NCI-H460 lung
DMS 114 small cell lung = system: DMS 114 small cell lung
LXFL 529 NSCLC = system: LXFL 529 NSCLC
TK-10 renal = system: TK-10 renal
LOX IMVI melanoma = system: LOX IMVI melanoma
NCI-H226 lung = system: NCI-H226 lung
SW-620 colon = system: SW-620 colon
SK-MEL-2 melanoma = system: SK-MEL-2 melanoma
M19-MEL melanoma = system: M19-MEL melanoma
EKVX NSCLC = system: EKVX NSCLC
OVCAR-8 ovarian = system: OVCAR-8 ovarian
OVCAR-5 ovarian = system: OVCAR-5 ovarian
A549 NSCLC = system: A549 NSCLC
UACC-62 melanoma = system: UACC-62 melanoma
SN12C renal = system: SN12C renal
CCRF-CEM leukemia = system: CCRF-CEM leukemia
SNB-78 CNS = system: SNB-78 CNS
SNB-75 CNS = system: SNB-75 CNS
HOP-18 NSCLC = system: HOP-18 NSCLC
OVCAR-4 ovarian = system: OVCAR-4 ovarian
HOP-92 NSCLC = system: HOP-92 NSCLC
IGROV1 ovarian = system: IGROV1 ovarian
SK-MEL-5 melanoma = system: SK-MEL-5 melanoma
RXF 393 renal = system: RXF 393 renal
SNB-19 CNS = system: SNB-19 CNS
DMS 273 small cell lung = system: DMS 273 small cell lung
SR leukemia = system: SR leukemia
HOP-62 NSCLC = system: HOP-62 NSCLC
U251 CNS = system: U251 CNS
SK-MEL-28 melanoma = system: SK-MEL-28 melanoma
HCC-2998 colon = system: HCC-2998 colon
HCT-116 colon = system: HCT-116 colon
UO-31 renal = system: UO-31 renal
MALME-3M melanoma = system: MALME-3M melanoma
XF 498 CNS = system: XF 498 CNS
SK-OV-3 ovarian = system: SK-OV-3 ovarian
786-0 renal = system: 786-0 renal
DLD-1 colon = system: DLD-1 colon
NCI-H522 lung = system: NCI-H522 lung
CAKI-1 renal = system: CAKI-1 renal
SF-295 CNS = system: SF-295 CNS

`Cc1cc(=O)[nH]c(NN2C(Cl)C(=O)C2c2c(O)ccc3ccccc23)n1` (stereo not given) gave a TGI (KM12 colon) of 61.5 µM, a TGI (KM20L2 colon) of 66.8 µM and a TGI (SF-539 CNS) of 41.1 µM. For the same molecule, the TGI (M14 melanoma) was 29 µM, the TGI (RPMI-8226 leukemia) was 53.5 µM and the TGI (HL-60(TB) leukemia) was 49.3 µM. The TGI (HCT-15 colon) was 36.9 µM, the TGI (MOLT-4 leukemia) was 64.1 µM and the TGI (OVCAR-3 ovarian) was 64.9 µM. The TGI (UACC-257 melanoma) was over 100 µM, the TGI (SF-268 CNS) was over 100 µM and the TGI (ACHN renal) was over 100 µM. For the same molecule, the TGI (HT29 colon) was 74 µM, the TGI (COLO 205 colon) was 58.2 µM and the TGI (K-562 leukemia) was over 100 µM. For the same molecule, the TGI (NCI-H23 lung) was 39.7 µM, the TGI (NCI-H460 lung) was 29.6 µM and the TGI (DMS 114 small cell lung) was 56 µM. It also gave a TGI (LXFL 529 NSCLC) of 30.3 µM, a TGI (TK-10 renal) of over 100 µM and a TGI (LOX IMVI melanoma) of 32.7 µM. For the same molecule, the TGI (NCI-H226 lung) was 45.6 µM, the TGI (SW-620 colon) was over 100 µM and the TGI (SK-MEL-2 melanoma) was 30.2 µM. For the same molecule, the TGI (M19-MEL melanoma) was over 100 µM, the TGI (EKVX NSCLC) was over 100 µM and the TGI (OVCAR-8 ovarian) was over 100 µM. The TGI (OVCAR-5 ovarian) was over 100 µM, the TGI (A549 NSCLC) was over 100 µM and the TGI (UACC-62 melanoma) was 47.4 µM. The TGI (SN12C renal) was 69.5 µM, the TGI (CCRF-CEM leukemia) was over 100 µM and the TGI (SNB-78 CNS) was 70.4 µM. The TGI (SNB-75 CNS) was 39.2 µM, the TGI (HOP-18 NSCLC) was 53.5 µM and the TGI (OVCAR-4 ovarian) was 51.7 µM. For the same molecule, the TGI (HOP-92 NSCLC) was 34.5 µM, the TGI (IGROV1 ovarian) was over 100 µM and the TGI (SK-MEL-5 melanoma) was 29.9 µM. For the same molecule, the TGI (RXF 393 renal) was 26.6 µM, the TGI (SNB-19 CNS) was 77.6 µM and the TGI (DMS 273 small cell lung) was 33.1 µM. The TGI (SR leukemia) was 72.7 µM, the TGI (HOP-62 NSCLC) was 77 µM and the TGI (U251 CNS) was 63.1 µM. For the same molecule, the TGI (SK-MEL-28 melanoma) was 44.1 µM, the TGI (HCC-2998 colon) was 32.6 µM and the TGI (HCT-116 colon) was 48.8 µM. For the same molecule, the TGI (UO-31 renal) was over 100 µM.

For `CCN1C(=O)C(N=[N+]=[N-])(c2ccccc2)C(=O)c2ccccc21` (stereo not given), the TGI (MALME-3M melanoma) was over 100 µM, the TGI (KM12 colon) was over 100 µM and the TGI (KM20L2 colon) was over 100 µM. For the same molecule, the TGI (XF 498 CNS) was 33 µM, the TGI (SF-539 CNS) was over 100 µM and the TGI (M14 melanoma) was over 100 µM. The TGI (RPMI-8226 leukemia) was over 100 µM, the TGI (SK-OV-3 ovarian) was over 100 µM and the TGI (HL-60(TB) leukemia) was over 100 µM. The TGI (HCT-15 colon) was over 100 µM, the TGI (MOLT-4 leukemia) was over 100 µM and the TGI (OVCAR-3 ovarian) was over 100 µM. For the same molecule, the TGI (UACC-257 melanoma) was over 100 µM, the TGI (SF-268 CNS) was over 100 µM and the TGI (ACHN renal) was over 100 µM. For the same molecule, the TGI (HT29 colon) was over 100 µM, the TGI (COLO 205 colon) was over 100 µM and the TGI (K-562 leukemia) was over 100 µM. It also gave a TGI (786-0 renal) of over 100 µM, a TGI (NCI-H23 lung) of over 100 µM and a TGI (DLD-1 colon) of over 100 µM. It also gave a TGI (NCI-H460 lung) of over 100 µM, a TGI (NCI-H522 lung) of over 100 µM and a TGI (DMS 114 small cell lung) of over 100 µM. For the same molecule, the TGI (LXFL 529 NSCLC) was over 100 µM, the TGI (TK-10 renal) was over 100 µM and the TGI (LOX IMVI melanoma) was over 100 µM. It also gave a TGI (NCI-H226 lung) of over 100 µM, a TGI (SW-620 colon) of over 100 µM and a TGI (SK-MEL-2 melanoma) of over 100 µM. The TGI (M19-MEL melanoma) was over 100 µM, the TGI (EKVX NSCLC) was over 100 µM and the TGI (OVCAR-5 ovarian) was over 100 µM. It also gave a TGI (A549 NSCLC) of over 100 µM, a TGI (UACC-62 melanoma) of over 100 µM and a TGI (CAKI-1 renal) of over 100 µM. For the same molecule, the TGI (SN12C renal) was over 100 µM, the TGI (CCRF-CEM leukemia) was over 100 µM and the TGI (SNB-78 CNS) was over 100 µM. The TGI (SNB-75 CNS) was over 100 µM, the TGI (HOP-18 NSCLC) was over 100 µM and the TGI (SF-295 CNS) was over 100 µM. It also gave a TGI (OVCAR-4 ovarian) of over 100 µM, a TGI (HOP-92 NSCLC) of over 100 µM and a TGI (IGROV1 ovarian) of over 100 µM. It also gave a TGI (SK-MEL-5 melanoma) of over 100 µM, a TGI (RXF 393 renal) of over 100 µM and a TGI (SNB-19 CNS) of over 100 µM. It also gave a TGI (DMS 273 small cell lung) of over 100 µM, a TGI (SR leukemia) of over 100 µM and a TGI (HOP-62 NSCLC) of over 100 µM. It also gave a TGI (U251 CNS) of over 100 µM, a TGI (SK-MEL-28 melanoma) of over 100 µM and a TGI (HCC-2998 colon) of over 100 µM. For the same molecule, the TGI (HCT-116 colon) was over 100 µM and the TGI (UO-31 renal) was over 100 µM.

Reference: PubChem BioAssay (NCI)
